In patent US5763599A, “Nucleoside derivatives with photolabile protective groups” (Pfleiderer; Wolfgang, priority 1994, dated 1998):
Values belong to the compound of their own block, whether it stands above or below them.

Assay: Irradiation experiments: photolytic cleavage of the 5' protective group with polychromatic light, followed by HPLC
Type: physicochemical
Conditions: for Concentration Thymidine (released): from 0.2 mM CNPEOC-T; for Relative Quantity Thymidine (released): of 0.2 mM; for Concentration CNPEOC-T: start 0.2 mM; for Relative Quantity CNPEOC-T: 200 µM; for Photolytic cleavage of the 5' protective group in relation to rapidity and high yields: compared with V1 and V2
Procedure: The corresponding protected thymidine nucleosides were irradiated by means of an irradiation apparatus which was composed of a Hg very high pressure lamp (OSRAM HBO, 200 W), a focusing lens, a shutter with an electronic control device for setting the shutter times and a temperature-controlled cuvette holder. A heat filter (0.032 molar CuSO4 solution) between the lamp and sample was also installed. 0.2 mM solutions of the nucleosides in MeOH/H2 O 1:1 were irradiated at 20° to 30° C. with the entire lamp spectrum (polychromatic light with wavelengths of λ>289 nm).
The cleavage of the protective groups was followed quantitatively by HPLC. The HPLC unit comprised of the following devices: Merck-Hitachi L-6200 Intelligent Pump, Merck-Hitachi Intelligent Auto Sampler AS 4000, Merck-Hitachi Interface, Merck Lichrosorb column RP 18, 125×5 mm. The ultra-violet/VIS spectrophotometer was a Kontron UVIKON 730 LC. Detection took place at 260 nm. The integration of the chromatogram signals took place by means of Merck software: D-6000 HPLC Manager.
MeOH/H2 O mixtures were always used for chromatography. The following gradient was used (flow: 1 ml/min)
Calibration curves for thymidine and the protected nucleosides were compiled by injecting dilution series into the chromatograph.
Samples (loop volume: 20 μl) were taken from the irradiated solutions after specific time intervals. Each sample was injected twice into the chromatograph. The mean values of these dual determinations were used for further evaluation. The peak areas of the chromatograms were converted into the concentrations of protected nucleosides or of thymidine by means of the above-compiled calibration curves. The concentration values obtained in this manner were divided by the maximum achievable concentration of 0.2 mM (=concentration of the protected nucleosides at the start of irradiation) and plotted against the irradiation time as a "relative quantity" in percent.
Linear regression yielded: y=4.96777·10^-4 +3.85757 10^-7 ·x with x=peak area and y=thymidine concentration; r=0.9999
Linear regression yielded: y=9.2999·10^-4 +3.22516 10^-7 ·x with x=peak area and y=CNPEOC-T concentration; r=0.9998.
With regard to several other derivatives according to the invention and to the two comparative compounds V1 (5'-O-(2-nitrobenzyloxycarbonyl)thymidine) and V2 (5'-O-(2.4dinitrobenzyloxycarbonyl)thymidine), the following table summarizes their results obtained according to the above method and evaluated in relation to half-life and yield percentage of deprotected nucleoside derivative, in relation to the maximum concentration achievable): […]

[1] = 0.2 mM in MeOH/H2O 1:1, 20° to 30° C., λ>289 nm

SMILES: Cc1cn([C@H]2C[C@H](O)[C@@H](COC(=O)OCCc3c([N+](=O)[O-])cccc3[N+](=O)[O-])O2)c(=O)[nH]c1=O [Compound 2, 5'-O-(2-(2,6-dinitrophenyl)ethoxycarbonyl)thymidine]
Yield of deprotected nucleoside, in relation to maximum concentration achievable [1]: 92 % Cmax
t0.5 (half-life of photolytic deprotection) [1]: 1.37 min

SMILES: Cc1cn([C@H]2C[C@H](O)[C@@H](COC(=O)OCCc3c(Cl)cccc3[N+](=O)[O-])O2)c(=O)[nH]c1=O [Compound 4, 5'-O-(2-(2-chloro-6-nitrophenyl)ethoxycarbonyl)thymidine]
Yield of deprotected nucleoside, in relation to maximum concentration achievable [1]: 86 % Cmax
Concentration Thymidine (released) (irradiation time 1 min): 32.7 µM
Relative Quantity Thymidine (released) (irradiation time 1 min): 16.3%
Concentration CNPEOC-T (irradiation time 1 min): 148.9 µM
Concentration Thymidine (released) (irradiation time 2 min): 85.8 µM
Relative Quantity Thymidine (released) (irradiation time 2 min): 42.9%
Concentration CNPEOC-T (irradiation time 2 min): 82.6 µM
Concentration Thymidine (released) (irradiation time 3 min): 88.8 µM
Relative Quantity Thymidine (released) (irradiation time 3 min): 44.4%
Concentration CNPEOC-T (irradiation time 3 min): 81.9 µM
Concentration Thymidine (released) (irradiation time 5 min): 127.8 µM
Relative Quantity Thymidine (released) (irradiation time 5 min): 63.9%
Concentration CNPEOC-T (irradiation time 5 min): 28.1 µM
Concentration Thymidine (released) (irradiation time 15 min): 167.3 µM
Relative Quantity Thymidine (released) (irradiation time 15 min): 83.7%
Concentration CNPEOC-T (irradiation time 15 min): 8.8 µM
Concentration Thymidine (released) (irradiation time 30 min): 169.3 µM
Relative Quantity Thymidine (released) (irradiation time 30 min): 84.6%
Concentration CNPEOC-T (irradiation time 30 min): 0 µM
Concentration Thymidine (released) (irradiation time 60 min): 171.1 µM
Relative Quantity Thymidine (released) (irradiation time 60 min): 85.5%
Concentration CNPEOC-T (irradiation time 60 min): 0 µM
Concentration Thymidine (released) (irradiation time 120 min): 157.7 µM
Relative Quantity Thymidine (released) (irradiation time 120 min): 78.9%
Concentration CNPEOC-T (irradiation time 120 min): 0 µM
t0.5 (half-life of photolytic deprotection) (meoh/h2o 1:1, 200 µM): 1.71 min
Relative Quantity CNPEOC-T (meoh/h2o 1:1, 1 min): 74.5%
Relative Quantity CNPEOC-T (meoh/h2o 1:1, 2 min): 41.3%
Relative Quantity CNPEOC-T (meoh/h2o 1:1, 0.05 h): 40.9%
Relative Quantity CNPEOC-T (meoh/h2o 1:1, 5 min): 14.0%
Relative Quantity CNPEOC-T (meoh/h2o 1:1, 0.25 h): 4.4%
Relative Quantity CNPEOC-T (meoh/h2o 1:1, 0.5 h): 0%
Relative Quantity CNPEOC-T (meoh/h2o 1:1, 1 h): 0%
Relative Quantity CNPEOC-T (meoh/h2o 1:1, 2 h): 0%

SMILES: Cc1cn([C@H]2C[C@H](O)[C@@H](COC(=O)OCCc3ccc(Cl)cc3[N+](=O)[O-])O2)c(=O)[nH]c1=O [Compound 6, 5'-O-(2-(4-chloro-2-nitrophenyl)ethoxycarbonyl)thymidine]
Yield of deprotected nucleoside, in relation to maximum concentration achievable [1]: 70 % Cmax
t0.5 (half-life of photolytic deprotection) (meoh/h2o 1:1, 200 µM): 2.3 min

SMILES: Cc1cn([C@H]2C[C@H](O)[C@@H](COC(=O)OCCc3c(Cl)cc(Cl)cc3[N+](=O)[O-])O2)c(=O)[nH]c1=O [Compound 8, 5'-O-(2-(2,4-dichloro-6-nitrophenyl)ethoxycarbonyl)thymidine]
Yield of deprotected nucleoside, in relation to maximum concentration achievable [1]: 77 % Cmax
t0.5 (half-life of photolytic deprotection) (meoh/h2o 1:1, 200 µM): 1.68 min

SMILES: COc1cc(CCOC(=O)OC[C@H]2O[C@@H](n3cc(C)c(=O)[nH]c3=O)C[C@@H]2O)c([N+](=O)[O-])cc1OC [Compound 9, 5'-O-(2-(4,5-dimethoxy-2-nitrophenyl)ethoxycarbonyl)thymidine]
Yield of deprotected nucleoside, in relation to maximum concentration achievable [1]: 77 % Cmax
t0.5 (half-life of photolytic deprotection) (meoh/h2o 1:1, 200 µM): 7.2 min

SMILES: Cc1cn([C@H]2C[C@H](O)[C@@H](COC(=O)OCc3ccc([N+](=O)[O-])cc3[N+](=O)[O-])O2)c(=O)[nH]c1=O [Compound V2, 5'-O-(2.4dinitrobenzyloxycarbonyl)thymidine, reference compound]
Yield of deprotected nucleoside, in relation to maximum concentration achievable [1]: 38 % Cmax
t0.5 (half-life of photolytic deprotection) [1]: 3.3 min

Further lines, results first:

Yield of deprotected nucleoside, in relation to maximum concentration achievable [1]: 79 % Cmax
t0.5 (half-life of photolytic deprotection) (meoh/h2o 1:1, 200 µM): 2.6 min
SMILES: Cc1cn([C@H]2C[C@H](O)[C@@H](COC(=O)OCCc3ccccc3[N+](=O)[O-])O2)c(=O)[nH]c1=O [Compound 1, 5'-O-(2-(2-nitrophenyl)ethoxycarbonyl)thymidine]

Yield of deprotected nucleoside, in relation to maximum concentration achievable [1]: 89 % Cmax
t0.5 (half-life of photolytic deprotection) (meoh/h2o 1:1, 200 µM): 1.71 min
SMILES: Cc1cn([C@H]2C[C@H](O)[C@@H](COC(=O)OCCc3c(Br)cccc3[N+](=O)[O-])O2)c(=O)[nH]c1=O [Compound 5, 5'-O-(2-(2-bromo-6-nitrophenyl)ethoxycarbonyl)thymidine]

Yield of deprotected nucleoside, in relation to maximum concentration achievable [1]: 89 % Cmax
Photolytic cleavage of the 5' protective group in relation to rapidity and high yields: clearly superior
t0.5 (half-life of photolytic deprotection) (meoh/h2o 1:1, 200 µM): 0.7 min
SMILES: Cc1cn([C@H]2C[C@H](O)[C@@H](COC(=O)OCC(C)c3ccccc3[N+](=O)[O-])O2)c(=O)[nH]c1=O (some centres unmarked) [Compound 10, 5'-O-(2-(2-nitrophenyl)propoxycarbonyl)thymidine]

Yield of deprotected nucleoside, in relation to maximum concentration achievable [1]: 97 % Cmax
Photolytic cleavage of the 5' protective group in relation to rapidity and high yields: clearly superior
t0.5 (half-life of photolytic deprotection) (meoh/h2o 1:1, 200 µM): 1.46 min
SMILES: Cc1cn([C@H]2C[C@H](O)[C@@H](COC(=O)OCC(Cl)c3ccccc3[N+](=O)[O-])O2)c(=O)[nH]c1=O (some centres unmarked) [Compound 11, 5'-O-(2-chloro-2-(2-nitrophenyl)ethoxycarbonyl)thymidine]

Yield of deprotected nucleoside, in relation to maximum concentration achievable [1]: 55 % Cmax
t0.5 (half-life of photolytic deprotection) (meoh/h2o 1:1, 200 µM): 2.5 min
SMILES: Cc1cn([C@H]2C[C@H](O)[C@@H](COC(=O)OCc3ccccc3[N+](=O)[O-])O2)c(=O)[nH]c1=O [Compound V1, 5'-O-(2-nitrobenzyloxycarbonyl)thymidine, reference compound]
